Test results published in a melting point compilation (Tetko et al.; mined from patent text by program, amines drawn as free bases though some values may be those of a salt).

Row | SMILES | melting point [°C]
1 | CC(C)NS(=O)(=O)c1ccc(N2CCC(N3C(=O)OCc4ccccc43)CC2)c([N+](=O)[O-])c1 | 168
2 | CC(=O)CCN1c2ccccc2NC(=O)C1C (racemic) | 108 to 109
3 | Cn1nnnc1CC(O)(c1ccccc1)c1ccc(F)cc1 (configuration not stated) | 113 to 114
4 | COc1ncc(NS(=O)(=O)c2cccc3c(N(C)C)cccc23)c(OC)n1 | 201
5 | COc1cc2c(cc1OC)C(Cc1cc(I)c(I)c(I)c1)N(C(=O)C(F)(F)F)CC2 (configuration not stated) | 215 to 216
6 | CN1CCN(C(=O)OC2c3ccc(C(F)(F)F)cc3C(=O)N2c2ccc3ccc(Cl)nc3n2)CC1 (configuration not stated) | 219
7 | CN1[C@@H](c2cccc(Cl)c2)c2ccccc2S1(=O)=O | 164
8 | CC1(CC(=O)O)OCCc2c1[nH]c1ccc(O)cc21 (configuration not stated) | 170 to 171
9 | O=C1C(=O)c2ccccc2C2=C1SCC1(CCN(Cc3ccc(F)cc3)CC1)O2 | 104 to 106
10 | CN(C)Cc1cccc(-c2cc3c(=O)n(NS(C)(=O)=O)c(=O)[nH]c3cc2C(F)(F)F)c1 | 346 to 348
11 | COc1ccc(C(=O)Nc2ccc(-c3ccc(-c4noc(C)n4)cc3C)cc2)cc1CCCN(C)C | 163 to 165
12 | CC(C)(C)OC(=O)CC1(SN=O)C2CC3CC(C2)CC1C3 (configuration not stated) | 85 to 87
13 | Cc1nc(-n2ccc(OCc3ccccc3)cc2=O)n(C)c1C(=O)NCc1ccccc1 | 232 to 233
14 | Cc1oc(-c2ccccc2)nc1CCOc1ccc(CN(O)C(N)=O)cc1F | 135 to 136
15 | CCOC(=O)c1nc(NC)sc1-c1nc2ccc(C)cn2c1C | 225 to 227
16 | CCCCN1CCC(C(=O)NO)(S(=O)(=O)c2ccc(OC)cc2)CC1 | 75
17 | Cc1c(C(=O)O)cnn1-c1ccc(OC(F)(F)F)cc1 | 176 to 178
18 | C=CCOc1ccc2c(C)cc(=O)oc2c1C(=O)C=Cc1cccc(OC)c1 | 61 to 63
19 | CCOC(=O)c1cnc2ccc(I)cn2c1=O | 166 to 168
20 | CCCCCCCCCCCCS(=O)(=O)c1cc2c(cc1S(=O)(=O)CCCCCCCCCCCC)C(=O)c1c(c(O)c3ccccc3c1O)C2=O | 173 to 175
21 | CCC(O)(c1ccc(F)cc1)c1ccc(OCc2cccc(C)n2)cc1 (configuration not stated) | 103 to 104
22 | O=S(=O)(CF)c1ccc(C2=C(c3ccc(F)cc3)CCC2)cc1 | 123 to 124
23 | CCCOC1=NS(=O)(=O)N(C)C(Oc2ccc([N+](=O)[O-])cc2)=N1 | 129 to 131
24 | CCN(C)C(=O)[C@H]1O[C@@H](n2cnc3c(N)ncnc32)[C@H](O)[C@@H]1O | 86 to 90
25 | CC(C)(C)OC(=O)N1CCc2c(n(CCO)c3ccc(Cl)c(Cl)c23)CC1 | 174 to 176

Row | SMILES | melting point [°C]
26 | Cc1ccn2c(C)c(-c3ccc4c(c3)NC(=O)CO4)nc2c1 | 239 to 241
27 | CC(=O)c1ccc(NCc2c(O)ccc3c2CCCO3)cc1 | 213 to 215
28 | CC1(C)C2CCC3(C)C(C2)C(=O)CCC13O (configuration not stated) | 120 to 123
29 | CCOc1ccccc1C(=O)Nc1ccc(C(=O)N2CCC(F)(F)/C(=C\C(=O)N3CCOCC3)c3ccccc32)cc1 | 144 to 147
30 | CC(=O)SC(CC(=O)c1ccc(Oc2ccccc2)cc1)C(=O)O (configuration not stated) | 106
31 | COc1ccc(-n2c(-c3ccccc3)cnc2S)cc1 | 167
32 | COc1ccc(-n2nc(Sc3ccccc3)c(C)c(C#N)c2=O)cc1 | 179 to 180
33 | CC(C)c1ccc2oc3cc(C#N)c(O)nc3c(=O)c2c1 | > 300
34 | COc1ccc(CN2C(=O)C(C)(c3cc(N(C)C(=O)C4CCCN4C(C)=O)ccc3Cl)c3cc(Cl)ccc32)c(OC)c1 (configuration not stated) | 74
35 | COC(=O)CCCC#Cc1cc(Cl)ccc1NS(=O)(=O)c1ccc2nc(N)oc2c1 | 135
36 | c1ccc2c(c1)CC1CN(Cc3c[nH]c4ncccc34)CCN21 (configuration not stated) | 197 to 198
37 | Cc1cc2nc(Cl)c3cccnc3n2n1 | 202
38 | CC(C)(C)OC(=O)NC(Cc1ccccc1)C(=O)Nc1nc(CC(=O)O)cs1 (configuration not stated) | 189 to 190
39 | COc1cc2c(cc1OC)C(c1ccc([N+](=O)[O-])c(C)c1)=NN(c1noc(=O)[nH]1)[C@H](C)C2 | 221 to 223
40 | COc1ccc(OC)c2c1C[C@@H](O)[C@H](N1CCN(c3ccccc3C)CC1)C2 (relative stereo) | 217 to 219
41 | Cc1c(-c2ccccc2)n(Cc2ccccc2)c2ccc(-c3ccc(OCC(=O)O)cc3)cc12 | 174 to 175
42 | CCON=C(CC)C1=C(O)CC(c2ccc3c(c2)N(CC#N)C(=O)CO3)CC1=O (configuration not stated) | 156 to 159
43 | CC1Oc2ccc(C(F)(F)F)cc2NC1=O (configuration not stated) | 142 to 144
44 | NC(=O)c1ccccc1Nc1ccncc1 | 206 to 209
45 | O=C1CC(c2cccc(Cl)c2)c2cc(C(c3ccc(Cl)cc3)n3ccnc3)cc3c2N1CCC3 (configuration not stated) | 93.6
46 | CC1(CS(=O)(=O)c2ccccc2)COC2(CCC(=O)CC2)OO1 (configuration not stated) | 96
47 | CCc1noc(-c2ccc(OCCC3CCN(c4ccc(C)nn4)CC3)cc2)n1 | 122
48 | CCN(CC)C(=O)C(=O)c1c[nH]c2c1ccc1c3ccccc3[nH]c12 | > 295
49 | CCOc1cc(C(C)C)c2c(c1)S(=O)(=O)N(COC(=O)c1c(Cl)cccc1Cl)C2=O | 140 to 141
50 | Clc1ccc(-c2nc(Br)cnc2OCC2CC2)cc1 | 86 to 87

Row | SMILES | melting point [°C]
51 | O=Cc1cccc(/C=C/c2nc(C3CCC3)cs2)c1 | 78 to 80
52 | COc1ccccc1Cc1ccc(C(=O)C2=C(O)C(=O)N(C(C)C)C2)o1 | 123 to 124
53 | Cc1c(NC(=O)c2ccc(OC[C@@H]3CCCO3)cc2F)ccc2c1cc(CNCC(C)(C)O)n2C | 118
54 | COc1ccccc1N1CCN(CCCn2c(=O)[nH]c3cscc3c2=O)CC1 | 187 to 188
55 | Cc1csc2nc3cccc(C(F)(F)F)c3c(=O)n12 | 182 to 186
56 | O=C(O)C1=C(c2ccccc2)c2ccccc2CS1 | 155 to 156
57 | CN(C(=O)N1CC(C)(c2ccccc2)C(c2ccc(Cl)cc2)=N1)c1ccc(Cl)cc1 (configuration not stated) | 132 to 135
58 | O=c1c2cc(Cl)ccc2ncn1CCCN1CCC(c2c[nH]c3ccccc23)CC1 | 138
59 | COC(=O)c1sc2c(c1OC(C)C)CN(C(=O)OC(C)(C)C)CC2 | 76 to 81
60 | N#Cc1cccc(NC(=O)c2ccn(-c3ccc(Cl)cc3)c2)c1N1CCC(N2CCOCC2)CC1 | 220
61 | Cc1nc(-n2ccc(COc3ccccc3)cc2=O)sc1C(=O)NCc1ccccc1 | 175 to 177
62 | CSc1nc(Cl)c(I)c(C(F)(F)F)n1 | 55 to 56
63 | COc1cc(C(C)=O)ccc1OCCCN1CCN(c2nn(C(=O)c3ccccc3)c3cc(F)ccc23)CC1 | 138 to 140
64 | O=C1OC(c2ccccc2)N=C1CCCNC(=O)c1ccccc1 (configuration not stated) | 135 to 138
65 | CCC1CC2=CC(O)CCC2C2CCC3(C)C(O)CCC3C12 (configuration not stated) | 93 to 95
66 | CCOC(=O)c1cnc2c(N(C)Cc3ccccc3)cc(CN3CCOCC3)cc2c1O | 151 to 153
67 | COc1ccc(N)cc1OCCCN1CCC(c2noc3cc(F)ccc23)CC1 | 94 to 95
68 | CC(C)OC(=O)c1ncn2c1cnc1ccccc12 | 205 to 206
69 | CCNc1nc(NC2CC2)cc(SC)n1 | 75 to 76
70 | Cc1ccc(NC(=O)C(N)c2ccc3c(c2)C(C)(C)CCC3(C)C)cc1 (configuration not stated) | 161 to 163
71 | CCC1(O)CC(OC2CC(N(C)C)C(OC3CC(O)C(O)C(C)O3)C(C)O2)c2c(cc3c(c2O)C(=O)c2c(O)ccc(O)c2C3=O)C1C(=O)OC (configuration not stated) | 162 to 163
72 | Cn1cc(Cl)c2cccc(C(=O)c3ccccc3)c21 | 73 to 74.5
73 | Cc1cc(-n2ccnc2)c2cccc(OCc3c(Cl)ccc(S(=O)(=O)N4CCC[C@H]4C(=O)NCc4ccccc4)c3Cl)c2n1 | 116
74 | CC#CCOc1ccc(S(=O)(=O)C(C(=O)OCC)C2CCN(C(=O)c3ccccc3)CC2)cc1 (configuration not stated) | 120
75 | CCC(C)OS(=O)(=O)c1ccc(C(=O)c2cc(Cl)ccc2Cl)cc1 (configuration not stated) | 73 to 74

Row | SMILES | melting point [°C]
76 | NC(=O)N(c1ccc(-c2c(CCO)sc3ncnc(N)c23)cc1)c1cccc(C(F)(F)F)c1 | 155 to 158
77 | COc1cccc(CNC(=O)COc2ccn3nc(-c4ccccc4)c(-c4ccc(=O)n(C(C)C)n4)c3c2)c1 | 166 to 168
78 | Nc1ccc(F)cc1-c1nc[nH]n1 | 142 to 144
79 | COc1ccc(C(C#Cc2cccc(-c3nnc(C)o3)c2)CC(=O)O)cc1OC1CCCC1 (racemic) | 110 to 114
80 | CC(C(=O)O)c1ccc2ocnc2c1 (configuration not stated) | 126 to 128
81 | COC(=O)C(NS(=O)(=O)c1ccc(-c2ccc(NC(=O)c3oc4cccc(C(C)=O)c4c3C)cc2)cc1)C(C)C (configuration not stated) | 197 to 199
82 | CC(=O)NCc1ccc(CO)cc1[N+](=O)[O-] | 133 to 135
83 | O=c1oc(OCCBr)c(Cl)c2ccccc12 | 183 to 185
84 | CN1CCN(c2cc3c(cc2F)c(=O)c(C(=O)O)cn3Cc2ccccc2)CC1 | 266
85 | CCCn1c(=O)c2c(nc(/C=C/c3ccc(OC)cc3)n2C)n(CCC)c1=O | 160 to 161
86 | S=c1[nH]c2cccnc2n1-c1ccc2c(c1)OCO2 | 278
87 | COc1ccc(-c2ccncc2)cc1 | 94 to 96
88 | CCOc1ccc(-c2c(Cl)ncn2-c2ccc(S(C)(=O)=O)cc2)cc1 | 207
89 | O=C1NCC(Cc2ccc(Br)cc2)O1 (configuration not stated) | 115 to 117
90 | CCOC(=O)c1cc(F)c(SCC)nc1NCc1ccc(OC)cc1 | 59
91 | CN1CCN(S(=O)(=O)c2ccccc2NC(=O)N[C@@H](Cc2ccc(NC(=O)c3c(Cl)cncc3Cl)cc2)C(=O)O)CC1 | 189
92 | O=C(O)c1ccc2[nH]c(=O)n(CCCCN3CC=C(c4ccccc4)CC3)c(=O)c2c1 | 237
93 | CC(=O)OCC1OC(n2cc(C(Cl)=CI)c(=O)[nH]c2=O)CC1OC(C)=O (configuration not stated) | 81 to 83
94 | COc1cc2c(cc1OC)CCCCC(C(=O)O)=C2 | 200 to 201
95 | COC(=O)c1ccn2c1C(C(=O)OC)CCC2 (configuration not stated) | 108
96 | C[N+](C)([O-])c1ccc(/C=C/c2c(Cl)cccc2Cl)cc1 | 80 to 82
97 | COc1c(C)c(C)c(OC)c(CC=C(C)CO)c1C | 85 to 86
